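Interpolation was linear, between the two tested concentrations surrounding the appropriate level; five concentrations were tested over 48 hours in 96-well plates. GI50: concentration for 50% inhibition of growth.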 The source made the active and inactive calls. Rule as the data show it: active = GI50 up to about 1.1 µM and inactive = higher.
Columns and labels:
Test in all cases: inhibition of tumour cell growth, NCI panel, 48 h
786-0 = system: 786-0
A549 = system: A549
HCC 2998 = system: HCC 2998
HCT-15 = system: HCT-15
HL-60 = system: HL-60
IGROV-1 = system: IGROV-1
KM12 = system: KM12
MCF7 = system: MCF7
MDA-MB-435 = system: MDA-MB-435
NCI-H226 = system: NCI-H226
NCI-H23 = system: NCI-H23
NCI/ADR-RES = system: NCI/ADR-RES
OVCAR-3 = system: OVCAR-3
OVCAR-5 = system: OVCAR-5
SF-295 = system: SF-295
SN12C = system: SN12C
SNB-75 = system: SNB-75
T47D = system: T47D
TK-10 = system: TK-10
UACC-257 = system: UACC-257

O=c1cc(-c2cccnc2)[nH]c2cc3c(cc12)OCO3
GI50 (786-0): 33.3 µM (inactive)
GI50 (A549): 19.2 µM (inactive)
GI50 (HCC 2998): 7.4 µM (inactive)
GI50 (HCT-15): 3.9 µM
GI50 (HL-60): 7.35 µM (inactive)
GI50 (IGROV-1): 4.47 µM (inactive)
GI50 (KM12): 3.77 µM (inactive)
GI50 (MCF7): 5.92 µM (inactive)
GI50 (MDA-MB-435): 1.84 µM (inactive)
GI50 (NCI-H226): 18.8 µM (inactive)
GI50 (NCI-H23): 10.3 µM (inactive)
GI50 (NCI/ADR-RES): 14.8 µM (inactive)
GI50 (OVCAR-3): 2.81 µM (inactive)
GI50 (OVCAR-5): > 100 µM (inactive)
GI50 (SF-295): 11.1 µM (inactive)
GI50 (SN12C): 12.2 µM (inactive)
GI50 (SNB-75): 3.29 µM (inactive)
GI50 (T47D): > 100 µM (inactive)
GI50 (TK-10): 41.6 µM (inactive)
GI50 (UACC-257): > 26.5 µM (inactive)

O=S(=O)(c1ccccc1)[C@@H]1[C@H]2C=C[C@](CS)(O2)[C@H]1S(=O)(=O)c1ccccc1
GI50 (786-0): 30 µM (inactive)
GI50 (A549): > 100 µM (inactive)
GI50 (HCC 2998): > 100 µM (inactive)
GI50 (HCT-15): 15.2 µM
GI50 (HL-60): 32.8 µM (inactive)
GI50 (IGROV-1): > 100 µM (inactive)
GI50 (KM12): > 100 µM (inactive)
GI50 (MCF7): 62.5 µM (inactive)
GI50 (MDA-MB-435): 46.2 µM (inactive)
GI50 (NCI-H226): > 100 µM (inactive)
GI50 (NCI-H23): 79.6 µM (inactive)
GI50 (NCI/ADR-RES): 53.5 µM (inactive)
GI50 (OVCAR-3): 19.1 µM (inactive)
GI50 (OVCAR-5): > 100 µM (inactive)
GI50 (SF-295): > 100 µM (inactive)
GI50 (SN12C): 38.2 µM (inactive)
GI50 (SNB-75): 67.5 µM (inactive)
GI50 (T47D): 84.3 µM (inactive)
GI50 (TK-10): > 100 µM (inactive)
GI50 (UACC-257): > 100 µM (inactive)

C/C(=N\NC(=S)N1CCOCC1)c1nc2cccnc2[nH]1
GI50 (786-0): > 10 µM (inactive)
GI50 (A549): 30.7 µM (inactive)
GI50 (HCC 2998): 78.3 µM (inactive)
GI50 (HCT-15): 53.5 µM
GI50 (HL-60): 24.5 µM (inactive)
GI50 (IGROV-1): 47.1 µM (inactive)
GI50 (KM12): 67 µM (inactive)
GI50 (MCF7): 30.5 µM (inactive)
GI50 (MDA-MB-435): > 100 µM (inactive)
GI50 (NCI-H226): 38.5 µM (inactive)
GI50 (NCI-H23): 35.2 µM (inactive)
GI50 (NCI/ADR-RES): 80.5 µM (inactive)
GI50 (OVCAR-3): 31 µM (inactive)
GI50 (OVCAR-5): 59.6 µM (inactive)
GI50 (SF-295): 23.8 µM (inactive)
GI50 (SN12C): 74 µM (inactive)
GI50 (SNB-75): 18.2 µM (inactive)
GI50 (T47D): 29.4 µM (inactive)
GI50 (TK-10): 31.8 µM (inactive)
GI50 (UACC-257): 26 µM (inactive)

[N-]=[N+]=C1C(=O)c2ccccc2-c2ccccc21
GI50 (786-0): 26.1 µM (inactive)
GI50 (A549): 30.4 µM (inactive)
GI50 (HCC 2998): 51.3 µM (inactive)
GI50 (HCT-15): 29 µM
GI50 (HL-60): 28.8 µM (inactive)
GI50 (IGROV-1): 33 µM (inactive)
GI50 (KM12): 39.2 µM (inactive)
GI50 (MCF7): 25.9 µM (inactive)
GI50 (MDA-MB-435): 40.7 µM (inactive)
GI50 (NCI-H226): 30 µM (inactive)
GI50 (NCI-H23): 35 µM (inactive)
GI50 (NCI/ADR-RES): 25.6 µM (inactive)
GI50 (OVCAR-3): 40.9 µM (inactive)
GI50 (OVCAR-5): 34.1 µM (inactive)
GI50 (SF-295): 33 µM (inactive)
GI50 (SN12C): 35.2 µM (inactive)
GI50 (SNB-75): 20 µM (inactive)
GI50 (T47D): 28.3 µM (inactive)
GI50 (TK-10): 54 µM (inactive)
GI50 (UACC-257): 36.7 µM (inactive)
